ChEMBL document CHEMBL3243959, “In vitro metabolism of a new 4-hydroxycoumarin anticoagulant. Structure of an unusual metabolite” (J Med Chem, 1977)
The source made the active and inactive calls. The rule behind the calls is not given here.

Columns and labels:
[1] = Retardation factor of the compound in 9:1 v/v benzene-ethyl acetate solvent system by TLC analysis; assay type: physicochemical
Liver microsome [2] = assay: Drug metabolism Wistar albino rat liver microsomes assessed as formation of 6-[1-Hydroxy-2-oxo-3-[p-(2-chloroethyl)phenyl]hexylidene]-2,4-cyclohexadien-1-one at 5 umol after 30 mins by TLC analysis in presence of carbon monooxide; assay type: ADME; conditions: 0.5 h
[3] = Retardation factor of the compound in 9:1 v/v dichloroethane-acetone solvent system by TLC analysis; assay type: physicochemical
[4] = Retardation factor of the compound in 20:3 v/v benzene-acetic acid solvent system by TLC analysis; assay type: physicochemical
[5] = Drug level in Duncan-Hartley guinea pig liver microsomes treated with clocoumarol at 5 umol after 30 mins by TLC analysis in presence of NADPH generating system; assay type: ADME, Cavia porcellus; conditions: 0.5 h
Rattus norvegicus = assay: Anticoagulant activity in rat at 100 x 0.25 mg/kg, ip; assay type: functional, organism-based; set-up: dose 0.25 mg/kg
[6] = Drug level in CBRI mouse liver microsomes treated with clocoumarol at 5 umol after 30 mins by TLC analysis in presence of NADPH generating system; assay type: ADME; conditions: 0.5 h
Liver microsome [7] = assay: Drug level in Wistar albino rat liver microsomes treated with clocoumarol at 5 umol after 30 mins by TLC analysis in presence of NADP/NAD/NADH/oxygen; assay type: ADME; conditions: 0.5 h
Liver microsome [8] = assay: Drug level in Wistar albino rat liver microsomes treated with clocoumarol at 5 umol after 30 mins TLC analysis in presence of NADPH generating system; assay type: ADME; conditions: 0.5 h
Liver microsome [9] = assay: Drug level in Wistar albino rat washed liver microsomal fraction treated with clocoumarol at 5 umol after 30 mins by TLC analysis; assay type: ADME; conditions: microsomes, 0.5 h
Liver microsome [10] = assay: Drug metabolism in Wistar albino rat liver microsomes assessed as formation of 6-[1-Hydroxy-2-oxo-3-[p-(2-chloroethyl)phenyl]hexylidene]-2,4-cyclohexadien-1-one at 5 umol after 30 mins by TLC analysis in presence of nitrogen; assay type: ADME; conditions: 0.5 h
[11] = Drug metabolism in Duncan-Hartley guinea pig liver microsomes assessed as formation of 6-[1-Hydroxy-2-oxo-3-[p-(2-chloroethyl)phenyl]hexylidene]-2,4-cyclohexadien-1-one at 5 umol after 30 mins by TLC analysis in presence of NADPH generating system; assay type: ADME, Cavia porcellus; conditions: 0.5 h
Liver microsome [12] = assay: Drug metabolism in Wistar albino rat liver soluble microsomal fraction assessed as formation of 6-[1-Hydroxy-2-oxo-3-[p-(2-chloroethyl)phenyl]hexylidene]-2,4-cyclohexadien-1-one; assay type: ADME; conditions: microsomes
Liver microsome [13] = assay: Drug metabolism in Wistar albino rat washed liver microsomal fraction assessed as formation of 6-[1-Hydroxy-2-oxo-3-[p-(2-chloroethyl)phenyl]hexylidene]-2,4-cyclohexadien-1-one at 5 umol after 30 mins by TLC analysis; assay type: ADME; conditions: microsomes, 0.5 h
[14] = Drug metabolism in Wistar albino rat liver nuclear fraction assessed as formation of 6-[1-Hydroxy-2-oxo-3-[p-(2-chloroethyl)phenyl]hexylidene]-2,4-cyclohexadien-1-one at 5 umol after 30 mins by TLC analysis; assay type: ADME; conditions: 0.5 h
[15] = Drug metabolism in CBRI mouse liver microsomes assessed as formation of 6-[1-Hydroxy-2-oxo-3-[p-(2-chloroethyl)phenyl]hexylidene]-2,4-cyclohexadien-1-one at 5 umol after 30 mins by TLC analysis in presence of NADPH generating system; assay type: ADME; conditions: 0.5 h
[16] = Drug metabolism in Wistar albino rat mitochondrial fraction assessed as formation of 6-[1-Hydroxy-2-oxo-3-[p-(2-chloroethyl)phenyl]hexylidene]-2,4-cyclohexadien-1-one at 5 umol after 30 mins by TLC analysis; assay type: ADME, Mitochondria; conditions: 0.5 h
Liver microsome [17] = assay: Drug metabolism in Wistar albino rat liver microsomes assessed as formation of 6-[1-Hydroxy-2-oxo-3-[p-(2-chloroethyl)phenyl]hexylidene]-2,4-cyclohexadien-1-one at 5 umol after 30 mins by TLC analysis in presence of NADP/NAD/NADH/oxygen; assay type: ADME; conditions: 0.5 h

Row | Drug metabolism (Liver microsome [2]) | Drug metabolism [5] | Drug metabolism [6] | Drug metabolism (Liver microsome [7]) | Drug metabolism (Liver microsome [8]) | Drug metabolism (Liver microsome [9]) | Compound | Rf [1] | Rf [3] | Rf [4] | Activity (Rattus norvegicus) | Drug metabolism (Liver microsome [10]) | Drug metabolism [11] | Drug metabolism (Liver microsome [12]) | Drug metabolism (Liver microsome [13]) | Drug metabolism [14] | Drug metabolism [15] | Drug metabolism [16] | Drug metabolism (Liver microsome [17])
1 | metabolite_notdetected | metabolite_detected | metabolite_detected | metabolite_detected | metabolite_detected | metabolite_detected | CCCC(C(=O)/C(O)=C1\C=CC=CC1=O)c1ccc(CCCl)cc1 (stereo unspecified) | 0.44 | 0.61 | 0.74 | inactive | – | – | – | – | – | – | – | –
2 | – | – | – | – | – | – | CCCC(c1ccc(CCCl)cc1)c1c(O)c2ccccc2oc1=O (stereo unspecified) [CLOCOUMAROL] | 0.33 | 0.53 | 0.67 | – | metabolite_notdetected | metabolite_detected | metabolite_notdetected | metabolite_detected | metabolite_notdetected | metabolite_detected | metabolite_notdetected | metabolite_detected
